Tested on: recombinant guanylate cyclase reporter cell line
Experiment: Effect on a recombinant guanylate cyclase reporter cell line
Format: cell-based
Conditions: in some cases mean values from individual determinations
Experimental: B-2. Effect on a Recombinant Guanylate Cyclase Reporter Cell Line
The cellular activity of the compounds according to the invention is determined using a recombinant guanylate cyclase reporter cell line, as described in F. Wunder et al., Anal. Biochem. 339, 104-112 (2005).
Representative MEC values (MEC=minimum effective concentration) for the compounds of the invention are shown in the table below (in some cases as mean values from individual determinations): […]

Row | Structure (SMILES) | MEC (minimum effective concentration) [µM]
1 | Cc1cn2c(C(=O)N[C@@](C)(CO)c3nnc(C)s3)c(C)nc2c(OCc2c(F)cccc2F)n1 [Example 1, ent-8-[(2,6-Difluorobenzyl)oxy]-N-[(2S)-1-hydroxy-2-(5-methyl-1,3,4-thiadiazol-2-yl)propan-2-yl]-2,6-dimethylimidazo[1,2-a]pyrazine-3-carboxamide] | 0.65
2 | [2H]C([2H])([2H])CC(C)(N)CNC(=O)c1c(C)nc2c(OCc3c(F)cccc3F)nc(C)cn12 (single isomer, unassigned; enantiomer a) [Example 3, ent-N-[2-Amino-2-methyl(4,4,4-^2H3)butyl]-8-[(2,6-difluorobenzyl)oxy]-2,6-dimethylimidazo[1,2-a]pyrazine-3-carboxamide (Enantiomer A)] | 0.65
3 | Cc1cn2c(C(=O)NC(C)(CO)c3nnn(C(F)F)n3)c(C)nc2c(OCc2c(F)cccc2F)n1 (racemic) [Example 2, rac-8-[(2,6-Difluorobenzyl)oxy]-N-{2-[2-(difluoromethyl)-2H-tetrazol-5-yl]-1-hydroxypropan-2-yl}-2,6-dimethylimidazo[1,2-a]pyrazine-3-carboxamide] | 0.10
4 | Cc1cn2c(C(=O)NCC(C)(N)CC[Si](C)(C)C)c(C)nc2c(OCc2c(F)cccc2F)n1 (single isomer, unassigned; enantiomer b) [Example 5, ent-N-[2-Amino-2-methyl-4-(trimethylsilyl)butyl]-8-[(2,6-difluorobenzyl)oxy]-2,6-dimethylimidazo[1,2-a]pyrazine-3-carboxamide (Enantiomer B)] | 1.0
5 | Cc1cn2c(C(=O)NCC(C)(N)CC[Si](C)(C)C)c(C)nc2c(OCc2c(F)cccc2F)n1 (single isomer, unassigned; enantiomer a) [Example 4, ent-N-[2-Amino-2-methyl-4-(trimethylsilyl)butyl]-8-[(2,6-difluorobenzyl)oxy]-2,6-dimethylimidazo[1,2-a]pyrazine-3-carboxamide (Enantiomer A)] | 1.0

— patent US10150773B2, “N-substituted 8-[(2,6-difluorobenzyl)oxy]-2,6- dimethylimidazo[1,2-a]pyrazin-3-carboxamide derivatives as stimulators of soluble guanylate cyclase (SGC) for the treatment of cardiovascular diseases” (Bayer Pharma Aktiengesellschaft, priority 2015, dated 2018)
